Source: publication PMC8619001, “Discovery of New Ginsenol-Like Compounds with High Antiviral Activity” (Molecules, 2021)

System: A/Vladivostok/2/2009 (H1N1)
Test: microbe, parasite or virus in culture
Type: cell-based
Settings: Influenza A virus, H1N1, MDCK, 72 h, read-out: IC50 H1N1

For `CC(=O)NC12CC(C)(C)C3CCC1(C)CCCC32C` [Compound 1a, (1S,3aR,4R,7aS)-N-(2,2,4,7a-tetramethyloctahydro-1,4-etanoinden-3a-yl)-acetamide], the IC50 was 380 ± 51 nM.
